Assay results from ChEMBL document CHEMBL4387711, “Discovery of niclosamide and its O-alkylamino-tethered derivatives as potent antibacterial agents against carbapenemase-producing and/or colistin resistant Enterobacteriaceae isolates” (2019).
≈ marks a conversion by molar mass, not a printed value. Calls of active or inactive are those of the source. The calls are words filed in the database; no cut-off is given here.

How the values were obtained:
Enterobacter cloacae [1] = experiment: Antibacterial activity against colistin-resistant Enterobacter cloacae 190 by broth microdilution method; type: functional, organism-based
Escherichia coli [2] = experiment: Antibacterial activity against colistin-susceptible NDM1/KPC-producing Escherichia coli by broth microdilution method; type: functional
Klebsiella aerogenes [3] = experiment: Antibacterial activity against colistin-resistant Enterobacter aerogenes 3 by broth microdilution method; type: functional, organism-based
Escherichia coli [4] = experiment: Bactericidal activity against colistin-susceptible NDM-1/KPC-producing Escherichia coli assessed as reduction in bacterial count at MIC measured after 2 hrs by time kill assay; type: functional, organism-based
Klebsiella aerogenes [5] = experiment: Antibacterial activity against colistin-resistant Enterobacter aerogenes 53 by broth microdilution method; type: functional, organism-based
Klebsiella pneumoniae [6] = experiment: Antibacterial activity against colistin-susceptible NDM-1/carbapenemase-producing Klebsiella pneumoniae by broth microdilution method; type: functional
Klebsiella pneumoniae [7] = experiment: Antibacterial activity against colistin-susceptible VIM1/carbapenemase-producing Klebsiella pneumoniae 07 by broth microdilution method; type: functional, organism-based
Enterobacter cloacae [8] = experiment: Antibacterial activity against colistin-resistant Enterobacter cloacae 272 by broth microdilution method; type: functional, organism-based
Enterobacter cloacae [9] = experiment: Antibacterial activity against colistin-resistant Enterobacter cloacae 297 by broth microdilution method; type: functional
Enterobacter cloacae [10] = experiment: Antibacterial activity against colistin-resistant Enterobacter cloacae 142 by broth microdilution method; type: functional, organism-based
Enterobacter cloacae [11] = experiment: Antibacterial activity against colistin-resistant Enterobacter cloacae 32 by broth microdilution method; type: functional, organism-based
Klebsiella pneumoniae [12] = experiment: Antibacterial activity against colistin-resistant OXA-48/CTX-M-15/carbapenemase-producing Klebsiella pneumoniae 29 by broth microdilution method; type: functional, organism-based
Enterobacter cloacae [13] = experiment: Antibacterial activity against colistin-resistant Enterobacter cloacae 280 by broth microdilution method; type: functional
Klebsiella pneumoniae [14] = experiment: Antibacterial activity against colistin-resistant VIM1/DHAI/carbapenemase-producing Klebsiella pneumoniae 21 by broth microdilution method; type: functional, organism-based
Enterobacter cloacae [15] = experiment: Antibacterial activity against colistin-resistant Enterobacter cloacae 263 by broth microdilution method; type: functional, organism-based
Klebsiella pneumoniae [16] = experiment: Antibacterial activity against colistin-susceptible OXA-48/CTX-M-15/carbapenemase-producing Klebsiella pneumoniae 28 by broth microdilution method; type: functional
Klebsiella pneumoniae [17] = experiment: Antibacterial activity against colistin-resistant OXA-48/CTX-M-15/carbapenemase-producing Klebsiella pneumoniae 29 assessed as inhibition of growth at 50 uM after 18 hrs; type: functional, organism-based
Enterobacter cloacae [18] = experiment: Antibacterial activity against colistin-resistant Enterobacter cloacae 297 assessed as inhibition of growth at 50 uM after 18 hrs; type: functional, organism-based
Klebsiella pneumoniae [19] = experiment: Antibacterial activity against colistin-resistant VIM1/DHAI/carbapenemase-producing Klebsiella pneumoniae 21 assessed as inhibition of growth at 50 uM after 18 hrs; type: functional, organism-based
Klebsiella pneumoniae [20] = experiment: Antibacterial activity against colistin-susceptible OXA-48/CTX-M-15/carbapenemase-producing Klebsiella pneumoniae 28 assessed as inhibition of growth at 50 uM after 18 hrs; type: functional, organism-based
Enterobacter cloacae [21] = experiment: Antibacterial activity against colistin-resistant Enterobacter cloacae 263 assessed as inhibition of growth at 50 uM after 18 hrs; type: functional, organism-based
Klebsiella aerogenes [22] = experiment: Antibacterial activity against colistin-resistant Enterobacter aerogenes 3 assessed as inhibition of growth at 50 uM after 18 hrs; type: functional, organism-based
Klebsiella pneumoniae [23] = experiment: Antibacterial activity against colistin-susceptible NDM-1/carbapenemase-producing Klebsiella pneumoniae assessed as inhibition of growth at 50 uM after 18 hrs; type: functional, organism-based
Klebsiella pneumoniae [24] = experiment: Antibacterial activity against colistin-susceptible VIM1/carbapenemase-producing Klebsiella pneumoniae 07 assessed as inhibition of growth at 50 uM after 18 hrs; type: functional, organism-based
Enterobacter cloacae [25] = experiment: Antibacterial activity against colistin-resistant Enterobacter cloacae 280 assessed as inhibition of growth at 50 uM after 18 hrs; type: functional, organism-based
Klebsiella pneumoniae [26] = experiment: Antibacterial activity against carbapenemase/Klebsiella pneumoniae CECT-997 by broth microdilution method; type: functional
Klebsiella aerogenes [27] = experiment: Antibacterial activity against colistin-resistant Enterobacter aerogenes 53 assessed as inhibition of growth at 50 uM after 18 hrs; type: functional, organism-based
Enterobacter cloacae [28] = experiment: Antibacterial activity against colistin-resistant Enterobacter cloacae 190 assessed as inhibition of growth at 50 uM after 18 hrs; type: functional, organism-based
Escherichia coli [29] = experiment: Antibacterial activity against colistin-susceptible NDM1/KPC-producing Escherichia coli assessed as inhibition of growth at 50 uM after 18 hrs; type: functional, organism-based
Escherichia coli [30] = experiment: Synergistic antibacterial activity against colistin-susceptible NDM1/KPC-producing Escherichia coli in presence of colistin by checkerboard assay; type: functional
Enterobacter cloacae [31] = experiment: Antibacterial activity against colistin-resistant Enterobacter cloacae 272 assessed as inhibition of growth at 50 uM after 18 hrs; type: functional, organism-based
Enterobacter cloacae [32] = experiment: Antibacterial activity against colistin-resistant Enterobacter cloacae 32 assessed as inhibition of growth at 50 uM after 18 hrs; type: functional, organism-based
Enterobacter cloacae [33] = experiment: Antibacterial activity against colistin-resistant Enterobacter cloacae 142 assessed as inhibition of growth at 50 uM after 18 hrs; type: functional, organism-based
Klebsiella pneumoniae [34] = experiment: Antibacterial activity against Klebsiella pneumoniae CECT-997 assessed as inhibition of growth at 50 uM after 18 hrs; type: functional, organism-based
Klebsiella pneumoniae [35] = experiment: Bactericidal activity against OXA-48/CTX-M-15/carbapenemase-producing Klebsiella pneumoniae 28 assessed as reduction in bacterial count at MIC measured from 2 hrs in presence of colistin by time kill assay; type: functional, organism-based
Klebsiella pneumoniae [36] = experiment: Synergistic bactericidal activity against OXA-48/CTX-M-15/carbapenemase-producing Klebsiella pneumoniae 28 assessed as reduction in bacterial count at MIC measured after 2 hrs in presence of colistin by time kill assay; type: functional, organism-based
Enterobacter cloacae [37] = experiment: Bactericidal activity against colistin-resistant Enterobacter cloacae 280 assessed as reduction in bacterial count at MIC measured after 2 hrs in presence of colistin by time kill assay; type: functional, organism-based
Enterobacter cloacae [38] = experiment: Synergistic bactericidal activity against colistin-resistant Enterobacter cloacae 280 assessed as reduction in bacterial count at MIC measured after 8 hrs in presence of colistin by time kill assay; type: functional, organism-based
Enterobacter cloacae [39] = experiment: Synergistic antibacterial activity against colistin-resistant Enterobacter cloacae 297 in presence of colistin by checkerboard assay; type: functional
Enterobacter cloacae [40] = experiment: Synergistic antibacterial activity against colistin-resistant Enterobacter cloacae 280 in presence of colistin by checkerboard assay; type: functional

Molecule: COLISTIN
- MIC (Enterobacter cloacae [1]): 32 µg/mL
- MIC (Escherichia coli [2]): 0.5 µg/mL
- MIC (Klebsiella aerogenes [3]): 32 µg/mL
- Activity (Escherichia coli [4]): Active
- MIC (Klebsiella aerogenes [5]): 32 µg/mL
- MIC (Klebsiella pneumoniae [6]): 0.5 µg/mL
- MIC (Klebsiella pneumoniae [7]): 0.5 µg/mL
- MIC (Enterobacter cloacae [8]): 16 µg/mL
- MIC (Enterobacter cloacae [9]): 3 µg/mL
- MIC (Enterobacter cloacae [10]): 64 µg/mL
- MIC (Enterobacter cloacae [11]): > 256 µg/mL
- MIC (Klebsiella pneumoniae [12]): 32 µg/mL
- MIC (Enterobacter cloacae [13]): 32 µg/mL
- MIC (Klebsiella pneumoniae [14]): 64 µg/mL
- MIC (Enterobacter cloacae [15]): 8 µg/mL
- MIC (Klebsiella pneumoniae [16]): 0.5 µg/mL

Molecule: NCCCCCOc1ccc(Cl)cc1C(=O)Nc1ccc([N+](=O)[O-])cc1Cl
- growth inhibition (GI) (Klebsiella pneumoniae [17]): inactive
- growth inhibition (GI) (Enterobacter cloacae [18]): inactive
- MIC (Escherichia coli [2]): > 15 µg/mL
- growth inhibition (GI) (Klebsiella pneumoniae [19]): inactive
- growth inhibition (GI) (Klebsiella pneumoniae [20]): Active
- growth inhibition (GI) (Enterobacter cloacae [21]): inactive
- growth inhibition (GI) (Klebsiella aerogenes [22]): inactive
- growth inhibition (GI) (Klebsiella pneumoniae [23]): Active
- growth inhibition (GI) (Klebsiella pneumoniae [24]): inactive
- growth inhibition (GI) (Enterobacter cloacae [25]): inactive
- MIC (Klebsiella pneumoniae [6]): > 15 µg/mL
- MIC (Klebsiella pneumoniae [26]): inactive
- growth inhibition (GI) (Klebsiella aerogenes [27]): inactive
- growth inhibition (GI) (Enterobacter cloacae [28]): inactive
- MIC (Enterobacter cloacae [9]): inactive
- growth inhibition (GI) (Escherichia coli [29]): Active
- fractional inhibitory concentration index (FICI) (Escherichia coli [30]): 0.38
- growth inhibition (GI) (Enterobacter cloacae [31]): inactive
- growth inhibition (GI) (Enterobacter cloacae [32]): inactive
- growth inhibition (GI) (Enterobacter cloacae [33]): inactive
- MIC (Enterobacter cloacae [13]): inactive
- growth inhibition (GI) (Klebsiella pneumoniae [34]): inactive
- MIC (Klebsiella pneumoniae [16]): 15 µg/mL (≈ 36.4 µM)
- Activity (Klebsiella pneumoniae [35]): Active
- Activity (Klebsiella pneumoniae [36]): Active

Molecule: O=C(Nc1ccc([N+](=O)[O-])cc1Cl)c1cc(Cl)ccc1O [NICLOSAMIDE]
- growth inhibition (GI) (Klebsiella pneumoniae [17]): inactive
- growth inhibition (GI) (Enterobacter cloacae [18]): Active
- MIC (Escherichia coli [2]): inactive
- growth inhibition (GI) (Klebsiella pneumoniae [19]): inactive
- growth inhibition (GI) (Klebsiella pneumoniae [20]): inactive
- growth inhibition (GI) (Enterobacter cloacae [21]): inactive
- growth inhibition (GI) (Klebsiella aerogenes [22]): inactive
- growth inhibition (GI) (Klebsiella pneumoniae [23]): inactive
- growth inhibition (GI) (Klebsiella pneumoniae [24]): inactive
- growth inhibition (GI) (Enterobacter cloacae [25]): Active
- Activity (Enterobacter cloacae [37]): Active
- MIC (Klebsiella pneumoniae [6]): inactive
- Activity (Enterobacter cloacae [38]): Active
- fractional inhibitory concentration index (FICI) (Enterobacter cloacae [39]): 0.25
- MIC (Klebsiella pneumoniae [26]): inactive
- growth inhibition (GI) (Klebsiella aerogenes [27]): inactive
- growth inhibition (GI) (Enterobacter cloacae [28]): inactive
- MIC (Enterobacter cloacae [9]): > 15 µg/mL
- growth inhibition (GI) (Escherichia coli [29]): inactive
- growth inhibition (GI) (Enterobacter cloacae [31]): inactive
- growth inhibition (GI) (Enterobacter cloacae [32]): inactive
- growth inhibition (GI) (Enterobacter cloacae [33]): inactive
- MIC (Enterobacter cloacae [13]): > 15 µg/mL
- fractional inhibitory concentration index (FICI) (Enterobacter cloacae [40]): 0.25
- growth inhibition (GI) (Klebsiella pneumoniae [34]): inactive
- MIC (Klebsiella pneumoniae [16]): inactive

Molecule: CC[C@H](N)COc1ccc(Cl)cc1C(=O)Nc1ccc([N+](=O)[O-])cc1Cl
- growth inhibition (GI) (Klebsiella pneumoniae [17]): inactive
- growth inhibition (GI) (Enterobacter cloacae [18]): inactive
- MIC (Escherichia coli [2]): > 15 µg/mL
- growth inhibition (GI) (Klebsiella pneumoniae [19]): inactive
- growth inhibition (GI) (Klebsiella pneumoniae [20]): inactive
- growth inhibition (GI) (Enterobacter cloacae [21]): inactive
- growth inhibition (GI) (Klebsiella aerogenes [22]): inactive
- growth inhibition (GI) (Klebsiella pneumoniae [23]): inactive
- growth inhibition (GI) (Klebsiella pneumoniae [24]): inactive
- growth inhibition (GI) (Enterobacter cloacae [25]): inactive
- MIC (Klebsiella pneumoniae [6]): inactive
- MIC (Klebsiella pneumoniae [26]): inactive
- growth inhibition (GI) (Klebsiella aerogenes [27]): inactive
- growth inhibition (GI) (Enterobacter cloacae [28]): inactive
- MIC (Enterobacter cloacae [9]): inactive
- growth inhibition (GI) (Escherichia coli [29]): Active
- fractional inhibitory concentration index (FICI) (Escherichia coli [30]): 0.5
- growth inhibition (GI) (Enterobacter cloacae [31]): inactive
- growth inhibition (GI) (Enterobacter cloacae [32]): inactive
- growth inhibition (GI) (Enterobacter cloacae [33]): inactive
- MIC (Enterobacter cloacae [13]): inactive
- growth inhibition (GI) (Klebsiella pneumoniae [34]): inactive
- MIC (Klebsiella pneumoniae [16]): inactive

Molecule: NCCOCCOc1ccc(Cl)cc1C(=O)Nc1ccc([N+](=O)[O-])cc1Cl
- growth inhibition (GI) (Klebsiella pneumoniae [17]): inactive
- growth inhibition (GI) (Enterobacter cloacae [18]): Active
- MIC (Escherichia coli [2]): > 15 µg/mL
- growth inhibition (GI) (Klebsiella pneumoniae [19]): inactive
- growth inhibition (GI) (Klebsiella pneumoniae [20]): inactive
- growth inhibition (GI) (Enterobacter cloacae [21]): inactive
- growth inhibition (GI) (Klebsiella aerogenes [22]): inactive
- growth inhibition (GI) (Klebsiella pneumoniae [23]): inactive
- growth inhibition (GI) (Klebsiella pneumoniae [24]): inactive
- growth inhibition (GI) (Enterobacter cloacae [25]): inactive
- MIC (Klebsiella pneumoniae [6]): inactive
- MIC (Klebsiella pneumoniae [26]): inactive
- growth inhibition (GI) (Klebsiella aerogenes [27]): inactive
- growth inhibition (GI) (Enterobacter cloacae [28]): inactive
- MIC (Enterobacter cloacae [9]): > 15 µg/mL
- growth inhibition (GI) (Escherichia coli [29]): Active
- growth inhibition (GI) (Enterobacter cloacae [31]): inactive
- growth inhibition (GI) (Enterobacter cloacae [32]): inactive
- growth inhibition (GI) (Enterobacter cloacae [33]): inactive
- MIC (Enterobacter cloacae [13]): inactive
- growth inhibition (GI) (Klebsiella pneumoniae [34]): inactive
- MIC (Klebsiella pneumoniae [16]): inactive
